Patent publication US12492200B2, “NLRP3 modulators” (INNATE TUMOR IMMUNITY, INC., priority 2020, dated 2025)

Target: T1, NLRP3 (Homo sapiens, UniProt Q96P20)
T1 construct: host or cells: PMA-differentiated THP-1 cells
Test: Measurement of IL-1β production (NLRP3 hIL1β EC50), PMA-differentiated THP-1 cells
Format: cell-based
Details: human IL-1β production; assayed using one or more of the described procedures
Protocol: THP-1 cells were purchased from the American Type Culture Collection and sub-cultured according to instructions from the supplier. Prior to experiments, cells were cultured in RPMI 1640 containing 10% heat inactivated FBS, penicillin (100 units/ml) and streptomycin (100 μg/ml), and maintained in log phase prior to experimental setup. Prior to the experiment THIP-1 were treated with PMA (Phorbol 12-myristate 13-acetate) (10 μg/ml) for 24 hours. The day of the experiment the media was removed and attaching cells were treated with trypsin for 2 minutes, cells were then collected, washed with PBS (phosphate buffer saline), spin down, resuspended in 2% heat inactivated FBS with RPMI at a concentration of 1×10^6 cells/ml, and 100 μl was plated in a 96 well plate. Compounds were dissolved in dimethyl sulfoxide (DMSO) and added to the culture medium to achieve desired concentration (e.g. 100, 30, 10, 3, 1, 0.3 or 0.1 μM). Cells were incubated with compounds for 4 hours. Cell free supernatant was collected and the production of IL-1β was evaluated by ELISA. A vehicle only control was run concurrently with each experiment. Final DMSO concentration was 1%.
THP-1 cells were purchased from the American Type Culture Collection and sub-cultured according to instructions from the supplier. Prior to experiments, cells were cultured in RPMI 1640 containing 10% heat inactivated FBS, penicillin (100 units/ml), streptomycin (100 μg/ml), HEPES (10 mM) and sodium pyruvate (1 mM) and maintained in log phase prior to experimental setup. Prior to the experiment, THP-1 cells were treated with PMA (Phorbol 12-myristate 13-acetate) (20 μg/ml) overnight. The day of the experiment, the media was removed and attached cells were treated with trypsin for 2 minutes, cells were then collected, washed with PBS (phosphate buffer saline), pelleted by centrifugation and resuspended in 2% heat inactivated FBS with RPMI at a concentration of 50,000 cells/well in a 384 well plate. Cell free supernatant was collected and the production of IL-1β was evaluated by ELISA. Compounds were dissolved in dimethyl sulfoxide (DMSO) and added to the culture medium to achieve desired concentration (e.g. 100, 30, 10, 3, 1, 0.3 or 0.1 μM). Cells were incubated with compounds for 2 hours. A vehicle only control was run concurrently with each experiment. Final DMSO concentration was 1%.
Serial dilutions of compounds in DMSO were added to low volume 384 well plates at 100 nl/well using an ECHO 550 acoustic dispenser (Labcyte) to achieve final starting concentration of 10 μM in assay.
THP-1 cells in RPMI (Gibco, 11875) media with 10% FBS at a density of 1×10^6 cell/ml in a T175 flask were treated with a final concentration of phorbol 12-myristate 13-acetate (PMA) (Sigma,P1585) of 50 ng/ml overnight at 37° C. at 5% CO2 for differentiation. Cells were harvested the next day after rinsing well with dPBS using 0.5% trypsin. A cell solution was prepared of 1×10^6 cells/ml for 50,000 cells in 50 μl/well in RPMI media with 2% FBS. Cells were plated using a multichannel pipette onto the compound dilutions in Greiner, 384 well, black clear bottom tissue culture treated plates (781090). The plates were incubated in 37° C. incubator at 5% CO2 for 2 hours.
After the 2 hour incubation, the cell plates were spun in the centrifuge for 5 minutes at 1200 rpm. Using the Felix (CyBio), 8 μl of the supernatant was transferred to 384 well, low volume, white proxy plates. (Perkin Elmer, 6008230). A human IL1beta hTRF kit was used to analyze the supernatant (CISBIO, 62HIL1BPEG). The kit instructions were followed for preparing the IL1Beta standard curve and then the antibodies from the kit were diluted 1:40 rather than 1:20 as kit instructed. Once combined, the antibodies were added across the plates, 5 μl/well. The plates were sealed and incubated at 4° C. overnight. The plates were then read on the Perkin Elmer EnVision at 665/615 nm using the hTRF laser.

T1 sequence (Q96P20 whole entry): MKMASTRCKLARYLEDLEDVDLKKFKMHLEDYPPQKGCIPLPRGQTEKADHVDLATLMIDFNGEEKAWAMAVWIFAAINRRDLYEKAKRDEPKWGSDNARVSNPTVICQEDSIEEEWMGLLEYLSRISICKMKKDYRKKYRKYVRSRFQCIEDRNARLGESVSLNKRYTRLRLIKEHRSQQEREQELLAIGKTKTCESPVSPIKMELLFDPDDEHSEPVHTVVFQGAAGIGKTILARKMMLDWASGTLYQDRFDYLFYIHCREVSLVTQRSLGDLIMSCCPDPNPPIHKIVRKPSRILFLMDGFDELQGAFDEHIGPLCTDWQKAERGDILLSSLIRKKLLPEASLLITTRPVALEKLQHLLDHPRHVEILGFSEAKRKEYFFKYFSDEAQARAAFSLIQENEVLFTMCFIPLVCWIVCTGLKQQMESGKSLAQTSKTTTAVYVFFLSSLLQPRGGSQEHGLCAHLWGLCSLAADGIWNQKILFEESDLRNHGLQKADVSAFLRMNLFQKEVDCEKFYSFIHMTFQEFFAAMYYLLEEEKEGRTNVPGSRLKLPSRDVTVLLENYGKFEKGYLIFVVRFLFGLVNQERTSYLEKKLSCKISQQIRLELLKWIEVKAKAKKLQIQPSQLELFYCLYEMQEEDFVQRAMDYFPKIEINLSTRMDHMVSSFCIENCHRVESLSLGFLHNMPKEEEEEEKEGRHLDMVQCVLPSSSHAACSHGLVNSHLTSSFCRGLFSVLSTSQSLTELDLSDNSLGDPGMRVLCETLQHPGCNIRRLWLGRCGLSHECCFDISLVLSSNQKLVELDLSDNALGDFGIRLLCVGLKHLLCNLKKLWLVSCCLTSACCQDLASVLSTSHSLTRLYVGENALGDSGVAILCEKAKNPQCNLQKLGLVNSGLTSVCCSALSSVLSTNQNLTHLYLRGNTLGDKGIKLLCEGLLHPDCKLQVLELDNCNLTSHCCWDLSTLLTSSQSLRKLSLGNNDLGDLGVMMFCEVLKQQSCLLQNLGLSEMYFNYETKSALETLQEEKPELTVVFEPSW

CCn1c([C@H]2CCCN(C(=O)c3ccccc3)C2)nc2c(N)nc3cc(-c4cc[nH]n4)ccc3c21 [Example 46]
EC50: 180 nM

CCn1c([C@H]2CCCN(C(=O)CCOC)C2)nc2c(N)nc3cc(-c4cc[nH]n4)ccc3c21 [Example 47]
EC50: 640 nM

CCn1c([C@H]2CCCN(C(=O)C3CC3(F)F)C2)nc2c(N)nc3cc(-c4cc[nH]n4)ccc3c21 (some centres unmarked) [Example 48]
EC50: 80 nM

C#CCC(=O)N1CCC[C@H](c2nc3c(N)nc4cc(-c5cc[nH]n5)ccc4c3n2CC)C1 [Example 49]
EC50: 620 nM

CCn1c([C@H]2CCCN(C(=O)Cc3ccccc3)C2)nc2c(N)nc3cc(-c4cc[nH]n4)ccc3c21 [Example 50]
EC50: 220 nM

CC(=O)N1CCC[C@H](c2nc3c(N)nc4cc(-c5cc[nH]n5)ccc4c3n2C(C)C)C1 [Example 51]
EC50: 930 nM

CCCC(=O)N1CCC[C@H](c2nc3c(N)nc4cc(-c5cc[nH]n5)ccc4c3n2C(C)C)C1 [Example 52]
EC50: 380 nM

CC(C)CC(=O)N1CCC[C@H](c2nc3c(N)nc4cc(-c5cc[nH]n5)ccc4c3n2C(C)C)C1 [Example 53]
EC50: 230 nM

CC(C)n1c([C@H]2CCCN(C(=O)C3CCC3)C2)nc2c(N)nc3cc(-c4cc[nH]n4)ccc3c21 [Example 54]
EC50: 240 nM

CC(C)n1c([C@H]2CCCN(C(=O)C3(C#N)CC3)C2)nc2c(N)nc3cc(-c4cc[nH]n4)ccc3c21 [Example 55]
EC50: 230 nM

CC(C)n1c([C@H]2CCCN(C(=O)c3ccccc3)C2)nc2c(N)nc3cc(-c4cc[nH]n4)ccc3c21 [Example 56]
EC50: 300 nM

CC(C)n1c([C@H]2CCCN(C(=O)Cc3ccccc3)C2)nc2c(N)nc3cc(-c4cc[nH]n4)ccc3c21 [Example 57]
EC50: 400 nM

CC(C)n1c([C@H]2CCCN(C(=O)C3CC(F)(F)C3)C2)nc2c(N)nc3cc(-c4cc[nH]n4)ccc3c21 [Example 58]
EC50: 330 nM

COCCC(=O)N1CCC[C@H](c2nc3c(N)nc4cc(-c5cc[nH]n5)ccc4c3n2C(C)C)C1 [Example 59]
EC50: 970 nM

CC(C)C(=O)N1CCC[C@@H](c2nc3c(N)nc4cc(-c5cc[nH]n5)ccc4c3[nH]2)C1 [Example 60]
EC50: 4600 nM

CC(C)(C)C(=O)N1CCC[C@@H](c2nc3c(N)nc4cc(-c5cc[nH]n5)ccc4c3[nH]2)C1 [Example 61]
EC50: 2300 nM

CCCC(=O)N1CCC[C@@H](c2nc3c(N)nc4cc(-c5cc[nH]n5)ccc4c3[nH]2)C1 [Example 62]
EC50: 1200 nM

Nc1nc2cc(-c3cc[nH]n3)ccc2c2[nH]c([C@@H]3CCCN(C(=O)C4CC4(F)F)C3)nc12 (some centres unmarked) [Example 63]
EC50: 6600 nM

COCC(=O)N1CCC[C@@H](c2nc3c(N)nc4cc(-c5cc[nH]n5)ccc4c3[nH]2)C1 [Example 64]
EC50: 9900 nM

C#CCC(=O)N1CCC[C@@H](c2nc3c(N)nc4cc(-c5cc[nH]n5)ccc4c3[nH]2)C1 [Example 65]
EC50: 350 nM

CC(C)CC(=O)N1CCC[C@@H](c2nc3c(N)nc4cc(-c5cc[nH]n5)ccc4c3[nH]2)C1 [Example 66]
EC50: 3500 nM

Nc1nc2cc(-c3cc[nH]n3)ccc2c2[nH]c([C@@H]3CCCN(C(=O)c4ccccc4)C3)nc12 [Example 67]
EC50: 1800 nM

Nc1nc2cc(-c3cc[nH]n3)ccc2c2[nH]c([C@@H]3CCCN(C(=O)C4(C(F)(F)F)CC4)C3)nc12 [Example 68]
EC50: 2300 nM

N#CC1(C(=O)N2CCC[C@@H](c3nc4c(N)nc5cc(-c6cc[nH]n6)ccc5c4[nH]3)C2)CCC1 [Example 69]
EC50: 2000 nM

CC(=O)N1CC[C@H](c2nc3c(N)nc4cc(-c5cc[nH]n5)ccc4c3[nH]2)C1 [Example 71]
EC50: 4900 nM

CC(C)C(=O)N1CC[C@H](c2nc3c(N)nc4cc(-c5cc[nH]n5)ccc4c3[nH]2)C1 [Example 72]
EC50: 3100 nM

Nc1nc2cc(-c3cc[nH]n3)ccc2c2[nH]c([C@H]3CCN(C(=O)CC(F)(F)F)C3)nc12 [Example 74]
EC50: 6800 nM

N#CC1(C(=O)N2CC[C@H](c3nc4c(N)nc5cc(-c6cc[nH]n6)ccc5c4[nH]3)C2)CC1 [Example 75]
EC50: 5000 nM

Nc1nc2cc(-c3cc[nH]n3)ccc2c2[nH]c([C@H]3CCN(C(=O)c4ccccc4)C3)nc12 [Example 76]
EC50: 5500 nM

Nc1nc2cc(-c3cc[nH]n3)ccc2c2[nH]c([C@@H]3CCN(C(=O)c4ccccc4)C3)nc12 [Example 77]
EC50: 4100 nM

CCCC(=O)N1CCC[C@@H]1Cc1nc2c(N)nc3cc(-c4cc[nH]n4)ccc3c2[nH]1 [Example 78]
EC50: 5800 nM

CC(C)C(=O)N1CCC[C@@H]1Cc1nc2c(N)nc3cc(-c4cc[nH]n4)ccc3c2[nH]1 [Example 79]
EC50: 1600 nM

COCC(=O)N1CCC[C@@H]1Cc1nc2c(N)nc3cc(-c4cc[nH]n4)ccc3c2[nH]1 [Example 80]
EC50: 6600 nM

Nc1nc2cc(-c3cc[nH]n3)ccc2c2[nH]c(C[C@H]3CCCN3C(=O)C3(C(F)(F)F)CC3)nc12 [Example 81]
EC50: 4000 nM

N#CC1(C(=O)N2CCC[C@@H]2Cc2nc3c(N)nc4cc(-c5cc[nH]n5)ccc4c3[nH]2)CCC1 [Example 82]
EC50: 2600 nM

N#CC1(C(=O)N2CCC[C@@H]2Cc2nc3c(N)nc4cc(-c5cc[nH]n5)ccc4c3[nH]2)CCCC1 [Example 83]
EC50: 6600 nM

Nc1nc2cc(-c3cc[nH]n3)ccc2c2[nH]c(C[C@H]3CCCN3C(=O)c3ccccc3)nc12 [Example 84]
EC50: 2500 nM

Nc1nc2cc(-c3cc[nH]n3)ccc2c2[nH]c(C[C@H]3CCCN3C(=O)c3ccccn3)nc12 [Example 85]
EC50: 5900 nM

CC(C)C(=O)N1CCC[C@H]1Cc1nc2c(N)nc3cc(-c4cc[nH]n4)ccc3c2[nH]1 [Example 86]
EC50: 6400 nM

CC(C)(C)C(=O)N1CCC[C@H]1Cc1nc2c(N)nc3cc(-c4cc[nH]n4)ccc3c2[nH]1 [Example 88]
EC50: 1900 nM

Nc1nc2cc(-c3cc[nH]n3)ccc2c2[nH]c(C[C@@H]3CCCN3C(=O)C3CCC3)nc12 [Example 89]
EC50: 2800 nM

COCCC(=O)N1CCC[C@H]1Cc1nc2c(N)nc3cc(-c4cc[nH]n4)ccc3c2[nH]1 [Example 90]
EC50: 6000 nM

Nc1nc2cc(-c3cc[nH]n3)ccc2c2[nH]c(C[C@@H]3CCCN3C(=O)C3CC3(F)F)nc12 (some centres unmarked) [Example 91]
EC50: 4100 nM

N#CC1(C(=O)N2CCC[C@H]2Cc2nc3c(N)nc4cc(-c5cc[nH]n5)ccc4c3[nH]2)CC1 [Example 92]
EC50: 9400 nM

Nc1nc2cc(-c3cc[nH]n3)ccc2c2[nH]c(C[C@@H]3CCCN3C(=O)C3(C(F)(F)F)CC3)nc12 [Example 93]
EC50: 3200 nM

N#CC1(C(=O)N2CCC[C@H]2Cc2nc3c(N)nc4cc(-c5cc[nH]n5)ccc4c3[nH]2)CCC1 [Example 94]
EC50: 6200 nM

N#CC1(C(=O)N2CCC[C@H]2Cc2nc3c(N)nc4cc(-c5cc[nH]n5)ccc4c3[nH]2)CCCC1 [Example 95]
EC50: 6500 nM

Nc1nc2cc(-c3cc[nH]n3)ccc2c2[nH]c(C[C@@H]3CCCN3C(=O)c3ccccc3)nc12 [Example 96]
EC50: 11000 nM

(S)-1-(2-((4-amino-7-(1H-pyrazol-3-yl)-1H-imidazo[4,5-c]quinolin-2-yl)methyl)pyrrolidin-1-yl)propane-1-one [Example 18]
EC50: 4900 nM

tert-Butyl 3-((4-amino-7-(1H-pyrazol-1-yl)-1H-imidazo[4,5-c]quinolin-2-yl)methyl)pyrrolidine-1-carboxylate [Example 23]
EC50: 2200 nM
